Our source for the MIC values is ChEMBL document CHEMBL1140749, “Novel copper(II) complex of N-propyl-norfloxacin and 1,10-phenanthroline with enhanced antileukemic and DNA nuclease activities” (2008).

Structures are written as SMILES. Values after ≈ are worked out from the molar mass of the structure shown.

Holding throughout (assay type): functional
One test concerns Escherichia coli. The test is described as follows: Antibacterial activity against Escherichia coli.
The next test deals with Staphylococcus aureus. The test is described as follows: Antibacterial activity against Staphylococcus aureus.
For the next test, the system named is Pseudomonas aeruginosa. The test is described as follows: Antibacterial activity against Pseudomonas aeruginosa.

The term MIC denotes the smallest concentration in the dilution series that meets the test's criterion for growth inhibition. Read a low MIC as inhibition by little substance.

On to `CCCN1CCN(c2cc3c(cc2F)c(=O)c(C(=O)O)cn3CC)CC1`, for which the figures for the minimum inhibitory concentration (MIC) with Escherichia coli, in the test on Staphylococcus aureus and in the test on Pseudomonas aeruginosa were 4 µg/mL (≈ 11.1 µM), 16 µg/mL (≈ 44.3 µM) and 4 µg/mL (≈ 11.1 µM), respectively.
As for `c1ccc(-c2ccccn2)nc1` [DIPYRIDYL], the MIC in the test on Escherichia coli, with Staphylococcus aureus and in the test on Pseudomonas aeruginosa was 256 µg/mL (≈ 1640 µM) throughout.
Consider `c1cnc2c(c1)ccc1cccnc12` [PHENANTHROLINE], for which the MIC in the test on Escherichia coli, in the test on Staphylococcus aureus and against Pseudomonas aeruginosa was 32 µg/mL (≈ 178 µM) each time.
Regarding `CCN1CCN(c2cc3c(cc2F)c(=O)c(C(=O)O)cn3C2CC2)CC1` [ENROFLOXACIN], the MIC was determined as 1 µg/mL (≈ 2.78 µM) against Escherichia coli, 8 µg/mL (≈ 22.3 µM) against Staphylococcus aureus and 1 µg/mL (≈ 2.78 µM) against Pseudomonas aeruginosa.
For `CCn1cc(C(=O)O)c(=O)c2cc3c(cc21)OCO3` [OXOLINIC ACID], the figures for the MIC with Escherichia coli, with Staphylococcus aureus and against Pseudomonas aeruginosa were 1 µg/mL (≈ 3.83 µM), 16 µg/mL (≈ 61.2 µM) and 16 µg/mL (≈ 61.2 µM), respectively.
